Laboratory results: patent publication US11584709B2, “Multitarget drug for treating diseases in mammals” (“PHARMENTERPRISES EURASIA” LIMITED LIABILITY COMPANY, priority 2017, dated 2023)
pIC50: −log10 of the molar value.

Key:
[1] = Stability in blood plasma, mouse; type: in vitro ADME; settings: for Content, % from the initial, Mean (n = 2): mouse blood plasma, 1 μM, 37° C.
Description: (§1) Compound 1 at a concentration of 1 μM was incubated for 24 hours in the blood plasma of human and various animal species (rats, mice, guinea pigs, rabbits, horses, dogs, bull, pygmy hogs) at 37° C. Aliquots were taken at time points of 0, 0.25, 1, 2, 4, 8 and 24 hours. In the case of blood plasma of rabbits and monkeys, Compound 1 was incubated for 4 hours, and aliquots were taken at time points 0, 0.25, 1, 4. After the protein precipitation with acetonitrile, samples were analyzed by HPLC-MS/MS to determine the concentration of Compound 1. Verapamil was used as a stable control.

[2] = Stability in blood plasma, dog; type: in vitro ADME; settings: 1 μM, 37° C.
Description: as §1

[3] = biological target: T1, bradykinin receptors B1 (BRDKB1) (Homo sapiens, UniProt P46663); experiment: Activity of bradykinin receptor BRDKB1, intracellular calcium, CHO cells; type: cell-based; settings: antagonist, LysdesArg9-BK agonist (3 nM)
T1 construct: expressed in transfected cells; host or cells: CHO cells
T1 sequence (P46663 1-353): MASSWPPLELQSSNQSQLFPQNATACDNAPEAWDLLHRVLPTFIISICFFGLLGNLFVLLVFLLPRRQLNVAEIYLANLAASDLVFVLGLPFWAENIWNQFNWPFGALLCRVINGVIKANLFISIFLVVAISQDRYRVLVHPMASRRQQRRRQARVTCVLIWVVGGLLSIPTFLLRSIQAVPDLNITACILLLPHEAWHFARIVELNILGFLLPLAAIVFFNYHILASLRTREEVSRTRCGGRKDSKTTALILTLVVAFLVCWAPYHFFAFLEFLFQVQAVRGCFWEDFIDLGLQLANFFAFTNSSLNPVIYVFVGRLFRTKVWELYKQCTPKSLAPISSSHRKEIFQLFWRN
Description: Compound 1 was dissolved in DMSO to a concentration of 100 mM; then a stock solution was serially diluted with DMSO. The maximum starting concentration of the substance is 100 μM. The effect was determined at 5 concentrations of the tested compounds, each concentration was studied twice. CHO cells expressing bradykinin receptors B1 were used in the experiment, these cells, after preincubation with a LysdesArg9-BK agonist (3 nM), were incubated with the test compound. The activity of receptors was determined according to the intracellular calcium concentration by fluorescence spectroscopy (Eur J Pharmacol. 2000 Mar. 24; 392(1-2):1-9).

[4] = biological target: T2, human recombinant cathepsin S (Homo sapiens, UniProt P25774); experiment: Effect on the enzymatic activity of cathepsin S; type: biochemical; settings: inhibitor; preincubated 15 minutes at 37° C.; substrate Z-Phe-Arg-AMC (6 μM)
T2 construct: host or cells: E. coli
T2 sequence (P25774 115-331): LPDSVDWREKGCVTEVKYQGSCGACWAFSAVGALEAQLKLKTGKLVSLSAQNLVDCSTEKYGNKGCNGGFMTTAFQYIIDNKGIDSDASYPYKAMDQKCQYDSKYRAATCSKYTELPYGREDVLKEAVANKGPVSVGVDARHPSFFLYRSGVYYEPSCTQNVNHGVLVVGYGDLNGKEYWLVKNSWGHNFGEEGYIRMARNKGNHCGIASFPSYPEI
Description: Compound 1 was dissolved in DMSO to a concentration of 100 mM; then a stock solution was serially diluted with DMSO. The maximum starting concentration of the substance is 100 μM. The effect was determined at 5 concentrations of the tested compounds, each concentration was studied twice. A human recombinant cathepsin S, expressed in E. coli was used in the experiment. Test compounds were preincubated for 15 minutes at 37° C. with an enzyme whose activity was determined by the rate of transformation of the substrate Z-Phe-Arg-AMC (6 μM) by the fluorescence spectroscopy (Protein Sci. 1996 April; 5(4):789-91).

[5] = Stability in blood plasma, rat; type: in vitro ADME; settings: for Content, % from the initial, Mean (n = 2): rat blood plasma, 1 μM, 37° C.
Description: as §1

[6] = biological target: T3, cannabinoid receptor type 1 (CB1R) (Homo sapiens, UniProt P21554); experiment: Activity of cannabinoid receptor type 1, CHO cells expressing CB1R; type: cell-based; settings: agonist, control CP55940 (30 nM)
T3 construct: expressed in transfected cells; host or cells: CHO cells
T3 sequence (P21554 whole entry): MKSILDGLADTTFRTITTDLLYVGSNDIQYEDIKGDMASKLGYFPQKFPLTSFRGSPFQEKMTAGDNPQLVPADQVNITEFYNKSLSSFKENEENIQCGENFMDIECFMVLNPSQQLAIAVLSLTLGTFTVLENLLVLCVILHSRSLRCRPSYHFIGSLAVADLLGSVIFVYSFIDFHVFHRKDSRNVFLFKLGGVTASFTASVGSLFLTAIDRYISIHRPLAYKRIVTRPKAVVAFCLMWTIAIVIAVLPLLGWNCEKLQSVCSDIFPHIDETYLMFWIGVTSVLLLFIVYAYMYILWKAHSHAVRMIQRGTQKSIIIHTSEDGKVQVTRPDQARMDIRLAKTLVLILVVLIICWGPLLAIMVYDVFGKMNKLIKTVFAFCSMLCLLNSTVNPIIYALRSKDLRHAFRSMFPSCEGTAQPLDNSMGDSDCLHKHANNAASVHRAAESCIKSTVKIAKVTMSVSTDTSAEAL
Description: Compound 1 was dissolved in DMSO to a concentration of 100 mM; then the stock solution was serially diluted with DMSO. The maximum starting concentration of the substance is 100 μM. The effect was determined at 5 concentrations of the tested compounds, each concentration was studied twice. CHO cells expressing CB1R were used in the experiment, these cells were incubated with the test compound. CP55940 (30 nM) compound was used as the control. The activity of receptors was determined by the intracellular calcium concentration by the homogeneous time resolved fluorescence spectroscopy (Mol Pharmacol. 1995 September; 48(3):443-50).

[7] = biological target: T4, prokineticin receptor type 1 (PK1) (Homo sapiens, UniProt Q8TCW9); experiment: Activity of prokineticin receptors type 1 (PK1), intracellular calcium, HEK-293 cells; type: cell-based; settings: antagonist, PK1 agonist (3 nM)
T4 construct: expressed in transfected cells; host or cells: HEK-293 cells
T4 sequence (Q8TCW9 whole entry): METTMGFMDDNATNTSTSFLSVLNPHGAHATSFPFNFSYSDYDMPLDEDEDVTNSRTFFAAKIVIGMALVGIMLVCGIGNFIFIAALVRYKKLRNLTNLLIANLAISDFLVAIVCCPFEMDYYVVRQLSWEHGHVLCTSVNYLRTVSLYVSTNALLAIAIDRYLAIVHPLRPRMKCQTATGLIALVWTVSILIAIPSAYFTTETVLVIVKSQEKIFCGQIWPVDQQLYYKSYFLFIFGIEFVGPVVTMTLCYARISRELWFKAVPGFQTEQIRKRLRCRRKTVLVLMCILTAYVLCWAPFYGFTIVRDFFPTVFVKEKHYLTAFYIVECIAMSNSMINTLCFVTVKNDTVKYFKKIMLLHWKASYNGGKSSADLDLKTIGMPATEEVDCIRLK
Description: Compound 1 was dissolved in DMSO to a concentration of 100 mM; then a stock solution was serially diluted with DMSO. The maximum starting concentration of the substance is 100 μM. The effect was determined at 5 concentrations of the tested compounds, each concentration was studied twice. HEK-293 cells expressing prokineticin receptors PK1 were used in the experiment, these cells, after preincubation with a PK1 agonist (3 nM), were incubated with the test compound. The activity of receptors was determined according to the intracellular calcium concentration by the fluorescence spectroscopy (Mol Pharmacol. 2005 June; 67(6):2070-6).

For `O=C(Cc1ccc(O)cc1)N[C@@H](Cc1ccccc1)C(=O)OCc1ccccc1` [Compound 1, benzyl (2S)-2-[2-(4-hydroxyphenyl)acetamido]-3-phenylpropanoate], the “hydrolysis in the blood plasma (in words)” value ([1]; blood plasma of mice, after 15 minutes) was “almost completely hydrolyzed”, the “Content, % from the initial, Mean (n = 2)” value (from here on “Content, % from the initial”) ([1]; 0 hour) was 100% and the “Content, % from the initial” value ([1]; 0.25 hour) was 0.00%. The “Content, % from the initial” value ([1]; 1 hour) was 0.00%, the “Content, % from the initial” value ([1]; 2 hour) was 0.00% and the “Content, % from the initial” value ([1]; 4 hour) was 0.00%. For the same molecule, the “Content, % from the initial” value ([1]; 8 hour) was 0.00%, the “Content, % from the initial” value ([1]; 24 hour) was 0.00% and the “Content, % from the initial” value ([2]; 0 hour) was 100%. The “Content, % from the initial” value ([2]; 0.25 hour) was 110%, the “Content, % from the initial” value ([2]; 1 hour) was 79.1% and the “Content, % from the initial” value ([2]; 2 hour) was 80.6%. For the same molecule, the “Content, % from the initial” value ([2]; 4 hour) was 67.2%, the “Content, % from the initial” value ([2]; 8 hour) was 54.1% and the “Content, % from the initial” value ([2]; 24 hour) was 33.8%. The pIC50 [3] was 5.43, the pIC50 [4] was 5.17 and the “hydrolysis in the blood plasma (in words)” value ([5]; blood plasma of rats, after 15 minutes) was “almost completely hydrolyzed”. For the same molecule, the “Content, % from the initial” value ([5]; 0 hour) was 100%, the “Content, % from the initial” value ([5]; 0.25 hour) was 0.00% and the “Content, % from the initial” value ([5]; 1 hour) was 0.00%. For the same molecule, the “Content, % from the initial” value ([5]; 2 hour) was 0.00%, the “Content, % from the initial” value ([5]; 4 hour) was 0.00% and the “Content, % from the initial” value ([5]; 8 hour) was 0.00%. The “Content, % from the initial” value ([5]; 24 hour) was 0.00%, the pIC50 [6] was 5.48 and the pIC50 [7] was 5.24.
